SMILES strings stand for the structures.

One data set relates to L2-2B1 cells. The following applies: mouse.
For a further data set, the system named is ScN2a cells. The conditions noted are these: mouse.
In another data set the test system is total PrP in ScN2a cells. It counts as cell-based, mouse.
The test system of another data set is PrP^Sc formation. The following applies: cited from earlier work.
Another data set relates to PrP^Sc in ScN2a cells. It counts as cell-based, mouse.

For `CCN(CC)CCCC(C)Nc1c2ccc(Cl)cc2nc2ccc(OC)cc12` (centres unmarked) [Quinacrine], the concentration causing cytotoxicity entry in the data set on L2-2B1 cells and in the data set on ScN2a cells was “above 2 μM” throughout. Besides, the “total PrP level” value with total PrP in ScN2a cells is on record as “unaffected”. Also, the “optimal concentration found to inhibit PrP^Sc formation” value in the data set on PrP^Sc formation is “below 4 μM”. Further, in the data set on PrP^Sc in ScN2a cells, the “PrP^Sc level” value is reported as “completely inhibited”.

The record behind these values is publication PMC4598813 (Scientific Reports, 2015).
